Reference: US10550100B2, “5-[3-[piperzin-1-yl]-3-oxo-propyl]-imidazolidine-2,4-dione derivatives as ADAMTS 4 and 5 inhibitors for treating E.G. osteoarthritis” (GALAPAGOS NV, priority 2016, dated 2020)
Where two headings read alike, the source gives them in different places.

Assays:
Format in all cases: biochemical
human ADAMTS-5 = human ADAMTS-5 (Homo sapiens (Human), UniProt Q9UNA0); experiment: hADAMTS-5 TBIS-1 cleavage assay, Protocol 3; conditions: Protocol 3, TBIS-1 substrate, 90 min at 37° C.; read-out: hADAMTS-5 potency IC50
Chain of human ADAMTS-5 (Q9UNA0 262-930): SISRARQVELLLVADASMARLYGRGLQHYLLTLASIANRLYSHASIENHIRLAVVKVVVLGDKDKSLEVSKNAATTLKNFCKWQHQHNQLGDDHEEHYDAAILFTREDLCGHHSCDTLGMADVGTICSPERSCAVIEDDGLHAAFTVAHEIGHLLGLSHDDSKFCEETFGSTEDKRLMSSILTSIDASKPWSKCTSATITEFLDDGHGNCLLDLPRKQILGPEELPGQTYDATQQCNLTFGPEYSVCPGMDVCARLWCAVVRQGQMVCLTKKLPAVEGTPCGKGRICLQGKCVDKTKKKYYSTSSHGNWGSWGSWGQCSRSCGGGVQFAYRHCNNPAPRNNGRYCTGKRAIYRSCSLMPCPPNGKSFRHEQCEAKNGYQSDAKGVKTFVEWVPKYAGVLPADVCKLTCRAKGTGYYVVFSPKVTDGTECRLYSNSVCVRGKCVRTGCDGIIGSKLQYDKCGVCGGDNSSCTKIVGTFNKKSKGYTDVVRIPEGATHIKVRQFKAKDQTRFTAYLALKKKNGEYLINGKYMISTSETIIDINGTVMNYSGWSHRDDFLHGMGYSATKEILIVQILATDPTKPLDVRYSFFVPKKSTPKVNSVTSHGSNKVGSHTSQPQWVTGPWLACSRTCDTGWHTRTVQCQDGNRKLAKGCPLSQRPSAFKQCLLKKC
Method: (§1) The reaction is initiated by adding to the assay plate TBIS-1 (10 μL, 4.5 μM, Anaspec) in the same buffer.
Finally, the fluorescence is read on the Envision (Perkin Elmer) after an incubation of 90 min at 37° C. (Excitation 485 nm, emission 530).

human TACE = human TACE (Homo sapiens (Human), UniProt P78536); experiment: hTACE 5FAM-[…]-5TAMRA cleavage assay; conditions: 75 min at room temperature, read-out: hTACE potency IC50
Chain of human TACE (P78536 215-671): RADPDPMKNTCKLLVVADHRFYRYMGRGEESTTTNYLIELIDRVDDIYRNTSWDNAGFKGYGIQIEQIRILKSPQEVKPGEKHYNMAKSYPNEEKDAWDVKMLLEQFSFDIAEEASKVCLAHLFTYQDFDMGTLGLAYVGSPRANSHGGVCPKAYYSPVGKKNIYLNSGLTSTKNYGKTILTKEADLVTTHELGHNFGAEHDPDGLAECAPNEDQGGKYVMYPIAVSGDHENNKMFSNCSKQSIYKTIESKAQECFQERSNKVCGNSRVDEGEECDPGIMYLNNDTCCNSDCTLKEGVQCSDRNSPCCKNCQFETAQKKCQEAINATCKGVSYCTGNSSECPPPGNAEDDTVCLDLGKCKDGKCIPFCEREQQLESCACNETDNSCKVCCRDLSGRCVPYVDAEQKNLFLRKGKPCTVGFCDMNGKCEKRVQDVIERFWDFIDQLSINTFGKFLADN
Method: Finally, the fluorescence is read on the Envision (Perkin Elmer) after an incubation of 75 min at room temperature (Excitation 485 nm, Emission 530).

human ADAMTS6 = human ADAMTS6 (Homo sapiens (Human), UniProt Q9UKP5); experiment: hADAMTS-6 520 MMP FRET substrate XII cleavage assay; conditions: 37° C. for 2 h, read-out: hADAMTS-6 potency IC50
Chain of human ADAMTS6 (Q9UKP5 other isoform, or with tags, fused parts or gaps): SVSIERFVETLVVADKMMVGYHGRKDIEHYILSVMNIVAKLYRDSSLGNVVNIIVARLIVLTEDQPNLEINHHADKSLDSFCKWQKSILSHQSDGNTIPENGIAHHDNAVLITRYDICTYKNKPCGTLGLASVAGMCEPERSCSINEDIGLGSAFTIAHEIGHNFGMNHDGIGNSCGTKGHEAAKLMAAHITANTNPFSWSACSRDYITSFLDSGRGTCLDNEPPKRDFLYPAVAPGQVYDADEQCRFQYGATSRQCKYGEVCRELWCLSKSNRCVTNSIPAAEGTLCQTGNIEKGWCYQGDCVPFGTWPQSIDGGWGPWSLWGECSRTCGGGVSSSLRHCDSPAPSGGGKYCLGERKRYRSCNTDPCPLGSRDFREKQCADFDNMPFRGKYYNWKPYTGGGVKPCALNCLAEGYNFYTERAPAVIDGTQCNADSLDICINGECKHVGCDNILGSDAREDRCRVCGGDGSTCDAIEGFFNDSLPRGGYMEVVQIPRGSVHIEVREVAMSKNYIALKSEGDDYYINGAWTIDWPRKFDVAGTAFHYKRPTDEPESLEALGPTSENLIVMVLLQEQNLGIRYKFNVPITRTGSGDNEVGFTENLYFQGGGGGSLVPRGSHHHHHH
Procedure, shortened: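 FRET cleavage of 520 MMP Substrate XII (Arg-Pro-Lys-Pro-Tyr-Ala-Nva-Trp-Met-Lys) by 0.73 nM enzyme in 25 mM Tris pH8.0, 0.05% CHAPS, 2.5 mM CaCl2. Compound dilution series from 20 μM top, 1/5 steps; substrate added from 1 μM stock, 2 h at 37° C. Fluorescence read at exc485/em530 for IC50.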

rnADAMTS-5 (1-564-6H) = rnADAMTS-5 (1-564-6H) (Rattus norvegicus (Rat), UniProt Q6TY19); experiment: Rat ADAMTS-5 TBIS-1 substrate cleavage assay; conditions: rnADAMTS-5, TBIS-1 substrate, 120 min at 37° C.; read-out: Rat ADAMTS-5 potency IC50
Chain of rnADAMTS-5 (1-564-6H) (Q6TY19 entry or part of it): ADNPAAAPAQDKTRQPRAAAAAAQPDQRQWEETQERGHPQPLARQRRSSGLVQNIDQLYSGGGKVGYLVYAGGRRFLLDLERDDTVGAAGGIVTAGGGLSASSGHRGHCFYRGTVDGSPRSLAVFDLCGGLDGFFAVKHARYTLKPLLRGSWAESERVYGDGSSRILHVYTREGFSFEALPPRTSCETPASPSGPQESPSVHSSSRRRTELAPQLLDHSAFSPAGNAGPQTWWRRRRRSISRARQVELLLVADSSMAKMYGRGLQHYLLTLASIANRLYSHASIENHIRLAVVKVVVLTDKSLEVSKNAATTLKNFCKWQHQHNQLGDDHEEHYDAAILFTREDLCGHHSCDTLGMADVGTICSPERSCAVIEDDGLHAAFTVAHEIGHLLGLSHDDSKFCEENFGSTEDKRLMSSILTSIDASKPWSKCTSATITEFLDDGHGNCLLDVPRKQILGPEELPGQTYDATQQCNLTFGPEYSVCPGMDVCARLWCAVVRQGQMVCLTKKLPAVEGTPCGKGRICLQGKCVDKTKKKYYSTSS
Method: The basis for the assay is the cleavage of the substrate TBIS-1 (5 FAM-[…] (5TAMRA)K-NH2) (SEQ ID NO: 2) by rnADAMTS-5 (1-564-6H).
as §1
Finally, the fluorescence is read on the Envision (Perkin Elmer) after an incubation of 120 min at 37° C. (Excitation 485 nm, emission 535).

human MMP13 [1] = target: T1, human MMP13 (Homo sapiens (Human), UniProt P45452); experiment: hMMP13 390 MMP FRET Substrate I cleavage assay, Protocol 1; conditions: Protocol 1, 390 MMP FRET Substrate I; read-out: hMMP-13 potency IC50
Method: (§2) The basis for the assay is the cleavage of the substrate 390 MMP FRET Substrate I (Anaspec Cat# AS-27076) by human MMP13 (Chemicon, Cat#CC068).
(§3) Human MMP13 is preactivated by incubated the enzyme in the same buffer complemented with 1 mM freshly prepared p-Aminophenylmercuric acetate (AMPA) for 1 h at 37° C.
(§4) The reaction is initiated by adding to the assay plate 390 MMP FRET Substrate I (10 μL, 2.5 μM) in the same buffer.
(§5) Finally, the fluorescence is read on the Envision (Perkin Elmer) after an incubation of 45 min at room temperature (Excitation 485 nm, Emission 530).

human MMP14 = human MMP14 (Homo sapiens (Human), UniProt P50281); experiment: hMMP14 390 MMP FRET Substrate I cleavage assay; conditions: 60 min at room temperature, read-out: hMMP-14 potency IC50
Method: The basis for the assay is the cleavage of the substrate 390 MMP FRET Substrate I (Anaspec Cat# AS-27076) by human MMP14 (Biomol, Cat#SE-259).
as §4
Finally, the fluorescence is read on the Envision (Perkin Elmer) after an incubation of 60 min at room temperature (Excitation 485 nm, Emission 530).

human MMP13 [2] = target: T1, human MMP13; experiment: hMMP13 390 MMP FRET Substrate I cleavage assay, Protocol 2; conditions: Protocol 2, 390 MMP FRET Substrate I; read-out: hMMP-13 potency IC50
Method: as §2, §3, §4, §5

Structure (SMILES) | IC50 (human ADAMTS-5) [nM] | IC50 (human TACE; 5FAM-LAQAVRSSSRK-5TAMRA) [nM] | IC50 (human ADAMTS6) [nM] | IC50 (rnADAMTS-5 (1-564-6H)) [nM] | IC50 (human MMP13 [1]) [nM] | IC50 (human TACE; 5FAM-[…]-5TAMRA) [nM] | IC50 (human MMP14) [nM] | IC50 (human MMP13 [2]) [nM]
O=C1NC(=O)C(CCC(=O)N2CCC(c3cccc(Cl)c3)CC2)(C2CC2)N1 (stereo not shown) [Cpd 18, 5-(3-(4-(3-chlorophenyl)piperidin-1-yl)-3-oxopropyl)-5-cyclopropyl-imidazolidine-2,4-dione] | 25 to 50 | > 100 | > 100 | 50 to 100 | > 100 | – | – | –
Cc1cccc(C2CCN(C(=O)[C@@H](C)C[C@@]3(C)NC(=O)NC3=O)CC2)c1 (stereo in doubt) [Cpd 27, 5-methyl-5-(2-methyl-3-oxo-3-(4-m-tolylpiperidin-yl)propyl) imidazolidine-2,4-dione] | 25 to 50 | – | 25 to 50 | 25 to 50 | > 100 | 50 to 100 | – | –
COc1cc(C2CCN(C(=O)CCC3(C)NC(=O)NC3=O)CC2)cc(OC)c1Cl (stereo not shown) [Cpd 22, 5-(3-(4-(4-chloro-3,5-dimethoxy-phenyl)piperidin-1-yl)-3-oxopropyl)-5-methyl-imidazolidine-2,4-dione] | > 100 | – | 0.001 to 25 | > 100 | > 100 | 50 to 100 | – | –
C[C@@H](C[C@@]1(C)NC(=O)NC1=O)C(=O)N1CCC(c2cccc(Cl)c2)CC1 (stereo in doubt) [Cpd 29, 5-(3-(4-(3-chlorophenyl)piperidin-1-yl)-2-methyl-3-oxopropyl)-5-methyl-imidazolidine-2,4-dione] | 25 to 50 | – | 25 to 50 | 0.001 to 25 | > 100 | 50 to 100 | – | –
C[C@@H](C[C@@]1(C2CC2)NC(=O)NC1=O)C(=O)N1CCC(c2ccccc2)CC1 [Cpd 20] | 50 to 100 | > 100 | > 100 | 50 to 100 | > 100 | – | – | –
C[C@@H](C[C@@]1(C)NC(=O)NC1=O)C(=O)N1CCC(c2cccc(F)c2)CC1 (stereo in doubt) [Cpd 28, 5-(3-(4-(3-fluorophenyl)piperidin-1-yl)-2-methyl-3-oxopropyl)-5-methyl-imidazolidine-2,4-dione] | 25 to 50 | > 100 | 50 to 100 | 0.001 to 25 | > 100 | – | – | –
COc1cc(Cl)ccc1C1CCN(C(=O)CC[C@@]2(C)NC(=O)NC2=O)CC1 [Cpd 79, (5R)-5-[3-[4-(4-chloro-2-methoxy-phenyl)-1-piperidyl]-3-oxo-propyl]-5-methyl-imidazolidine-2,4-dione] | > 100 | > 100 | 0.001 to 25 | – | – | – | > 100 | > 100
COc1c(Cl)cccc1C1CCN(C(=O)CCC2(C)NC(=O)NC2=O)CC1 (stereo not shown) [Cpd 75, 5-(3-(4-(3-chloro-2-methoxyphenyl)piperidin-1-yl)-3-oxopropyl)-5-methylimidazolidine-2,4-dione] | > 100 | > 100 | > 100 | – | – | – | > 100 | > 100
CCc1cc(C2CCN(C(=O)CC[C@H]3NC(=O)NC3=O)CC2)cc(OC)c1Cl [Cpd 106, (5R)-5-[3-[4-(4-chloro-3-ethyl-5-methoxy-phenyl)-1-piperidyl]-3-oxo-propyl] imidazolidine-2,4-dione] | > 100 | – | 0.001 to 25 | – | – | 50 to 100 | > 100 | > 100
COc1cc(C2CCN(C(=O)CC[C@@]3(C)NC(=O)NC3=O)CC2)cc(Cl)c1F [Cpd 80, (5R)-5-[3-[4-(3-chloro-4-fluoro-5-methoxy-phenyl)-1-piperidyl]-3-oxo-propyl]-5-methyl-imidazolidine-2,4-dione] | 50 to 100 | – | 0.001 to 25 | – | – | 25 to 50 | > 100 | > 100
CCc1cc(C2CCN(C(=O)CC[C@@]3(C)NC(=O)NC3=O)CC2)cc(OC)c1Cl [Cpd 105, (5R)-5-[3-[4-(4-chloro-3-ethyl-5-methoxy-phenyl)-1-piperidyl]-3-oxo-propyl]-5-methyl-imidazolidine-2,4-dione] | > 100 | – | 0.001 to 25 | – | – | 25 to 50 | > 100 | > 100
COc1cc(C2CCN(C(=O)CC[C@H]3NC(=O)NC3=O)CC2)cc(C)c1Cl [Cpd 115, (5R)-5-[3-[4-(4-chloro-3-methoxy-5-methyl-phenyl)-1-piperidyl]-3-oxo-propyl] imidazolidine-2,4-dione] | > 100 | – | 0.001 to 25 | – | – | 50 to 100 | > 100 | > 100
COC[C@]1(C[C@H](C)C(=O)N2CCC(c3cc(C)c(Cl)c(OC)c3)CC2)NC(=O)NC1=O (stereo in doubt) [Cpd 114, 5-[3-[4-(4-chloro-3-methoxy-5-methyl-phenyl)-1-piperidyl]-2-methyl-3-oxo-propyl]-5-(methoxymethyl) imidazolidine-2,4-dione] | 25 to 50 | – | 0.001 to 25 | – | – | 50 to 100 | > 100 | > 100
COc1cc(C2CCN(C(=O)[C@@H](C)C[C@@]3(C)NC(=O)NC3=O)CC2)cc(C)c1Cl (stereo in doubt) [Cpd 113, 5-[3-[4-(4-chloro-3-methoxy-5-methyl-phenyl)-1-piperidyl]-2-methyl-3-oxo-propyl]-5-methyl-imidazolidine-2,4-dione] | 25 to 50 | – | 0.001 to 25 | – | – | 50 to 100 | > 100 | > 100
COc1cc(C2CCN(C(=O)CCC3(C)NC(=O)NC3=O)CC2)cc(OC)c1F (stereo not shown) [Cpd 72] | > 100 | > 100 | 0.001 to 25 | – | – | – | > 100 | > 100
COc1cc(Cl)c(F)cc1C1CCN(C(=O)C(C)CC2(C)NC(=O)NC2=O)CC1 (stereo not shown) [Cpd 110, 5-[3-[4-(4-chloro-5-fluoro-2-methoxy-phenyl)-1-piperidyl]-2-methyl-3-oxo-propyl]-5-methyl-imidazolidine-2,4-dione] | 50 to 100 | – | 0.001 to 25 | – | – | 50 to 100 | > 100 | > 100
COc1cc(Cl)c(Cl)cc1C1CCN(C(=O)CC[C@@]2(C)NC(=O)NC2=O)CC1 [Cpd 96, (5R)-5-[3-[4-(4,5-dichloro-2-methoxy-phenyl)-1-piperidyl]-3-oxo-propyl]-5-methyl-imidazolidine-2,4-dione] | > 100 | – | 0.001 to 25 | – | – | 50 to 100 | > 100 | > 100
COc1c(Cl)cccc1C1CCN(C(=O)CC[C@H]2NC(=O)NC2=O)CC1 [Cpd 74, (R)-5-(3-(4-(3-chloro-2-methoxyphenyl)piperidin-1-yl)-3-oxopropyl) imidazolidine-2,4-dione] | > 100 | > 100 | > 100 | – | – | – | > 100 | > 100
COc1cc(C2CCN(C(=O)CC[C@@]3(C)NC(=O)NC3=O)CC2)cc(OC)c1F [Cpd 81, (5R)-5-[3-[4-(4-fluoro-3,5-dimethoxy-phenyl)-1-piperidyl]-3-oxo-propyl]-5-methyl-imidazolidine-2,4-dione] | 50 to 100 | – | 0.001 to 25 | – | – | 25 to 50 | > 100 | > 100
CCc1cc(C2CCN(C(=O)[C@@H](C)C[C@@]3(COC)NC(=O)NC3=O)CC2)cc(OC)c1Cl (stereo in doubt) [Cpd 104, 5-[3-[4-(4-chloro-3-ethyl-5-methoxy-phenyl)-1-piperidyl]-2-methyl-3-oxo-propyl]-5-(methoxymethyl) imidazolidine-2,4-dione] | 25 to 50 | – | 0.001 to 25 | – | – | 50 to 100 | > 100 | > 100
